Drawing on patent publication US20220168268A1, “SMALL-MOLECULE INHIBITOR OF PD-1/PD-L1, PHARMACEUTICAL COMPOSITION THEREOF WITH PD-L1 ANTIBODY, AND APPLICATION OF SAME” (Guangzhou Maxinovel Pharmaceuticals Co., Ltd., priority 2019, published 2022), this text covers IC50 for 7 molecules.

T1 sequence (Q9NZQ7 19-238 limits assumed): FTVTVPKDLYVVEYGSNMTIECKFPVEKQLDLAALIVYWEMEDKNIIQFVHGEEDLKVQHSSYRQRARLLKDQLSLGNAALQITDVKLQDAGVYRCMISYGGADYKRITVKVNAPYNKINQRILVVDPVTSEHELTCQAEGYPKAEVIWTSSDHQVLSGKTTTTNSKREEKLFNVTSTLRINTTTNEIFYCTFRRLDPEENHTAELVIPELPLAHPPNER

The test concerns the target T1, PD-1/PD-L1 (Homo sapiens, UniProt Q9NZQ7).
T1 construct: unspecified kit tag (tag1 or tag2, recognised by the detection antibodies); purchased CisBio 64CUS000C-1
Briefly: Homogeneous Time-Resolved Fluorescence (HTRF) PD-1/PD-L1 binding assay. Particulars: CisBio kit. The protocol: Homogenouse Time-Resolved Fluorescence (HTRF) binding assay was used to determine the binding activity of the compound of the present disclosure to PD-1/PD-L1.
The purchased kit (CisBio, #64CUS000C-1) contained the reagents required for experiments such as PD-1, PD-L1, anti-tagl-Eu, Anti-tag2-XL665, Dilute Buffer and Detection Buffer.
1. The compound was formulated to 10 concentrations with a three-fold concentration gradient with 100% DMSO.
2. The solution of the compound in DMSO was added to Dilute Buffer, and mixed evenly and then transferred to a 96-well plate.
3. PD-L1 was diluted with Dilute Buffer and added to the 96-well plate above.
4. PD-1 was diluted with Dilute Buffer, then added to the 96-well plate above and incubated at room temperature for 30 minutes.
5. One portion of anti-tag1-Eu and one portion of anti-tag2-XL665 were added to Detection Buffer, mixed evenly and transferred to the 96-well plate above.
6. The mixed solution in the 96-well plate were incubated at room temperature for 1 to 24 hours.
7. HTRF values were read by Envision.
(In general: Time-resolved FRET reads energy transfer from a long-lived donor to a nearby acceptor.)
`Cc1ccc(CNC(C)(CO)C(=O)O)cc1/C=C/c1cccc(-c2ccccc2)c1C` (stereo not shown) [Compound 8, (E)-2-(3-(2-(2-methylbiphenyl-3-yl)vinyl)-4-methylbenzylamino)-3-hydroxy-2-methylpropanoic Acid] yielded an IC50 of 0.042 µM.
To `Cc1c(/C=C/c2cc(CN[C@@](C)(CO)C(=O)O)ccc2C(F)(F)F)cccc1-c1ccc2cn(C)nc2c1` [Compound 42, (S,E)-3-hydroxy-2-methyl-2-(3-(2-methyl-3-(2-methyl-2H-indazol-6-yl)-styryl)-4-(trifluoromethyl)benzylamino)propanoic Acid] belongs 0.88 µM; to `C[C@@](CO)(NCc1ccc(C(F)(F)F)c(/C=C/c2cccc(-c3ccccc3)c2F)c1)C(=O)O` [Compound 33, (S,E)-2-(3-(2-(2-fluorobiphenyl-3-yl)vinyl)-4-(trifluoromethyl)benzylamino)-3-hydroxy-2-methylpropanoic Acid], 0.23 µM; to `Cc1c(/C=C/c2cc(CNC(CO)(CO)C(=O)O)ccc2C(F)(F)F)cccc1-c1ccccc1` [Compound 19, (E)-2-(3-(2-(2-methylbiphenyl-3-yl)vinyl)-4-(trifluoromethyl)benzylamino)-3-hydroxy-2-hydroxymethylpropanoic Acid], 0.061 µM.
The molecule `Cc1c(/C=C/c2cc(CNC(C)(CO)C(=O)O)ccc2C(F)(F)F)cccc1-c1ccc(F)cc1` (stereo not shown) [Compound 6, (E)-2-(3-(2-(4′-fluoro-2-methylbiphenyl-3-yl)vinyl)-4-(trifluoromethyl)benzylamino)-3-hydroxy-2-methylpropanoic Acid] had an IC50 of 0.32 µM.
The result for `Cc1c(/C=C/c2cc(CN[C@@](C)(CO)C(=O)O)ccc2C(F)(F)F)cccc1-c1cn2ccnc2cn1` [Compound 37] reads 1.3 µM; that for `Cc1c(CCc2cc(CNC(CO)C(=O)O)ccc2C(F)(F)F)cccc1-c1ccccc1` (stereo not shown) [Compound 18, 2-(3-(2-(2-Methylbiphenyl-3-yl)ethyl)-4-(trifluoromethyl)benzylamino)-3-hydroxypropanoic Acid], 0.046 µM.

As usually defined, the IC50 is the concentration that gives 50% inhibition. High values mean weaker potency in that assay, low ones greater potency in that assay.
